The values that follow come from patent US20230129258A1, “HETEROTANDEM BICYCLIC PEPTIDE COMPLEXES” (BicycleTx Limited, priority 2019, published 2023).

The target of this data set is CD137 (Homo sapiens, UniProt Q07011). Description: CD137 reporter assay (Promega, Jurkat cells) in co-culture with EphA2-expressing tumor cells (A549, PC3, HT29). The note with it: for fold induction / Emax (fold induction over background): CD137 reporter coculture assay with PC3 tumor cells; for fold induction: read-out: Emax (fold induction over background); for EC50: EC50, CD137 reporter coculture assay with PC3 tumor cells; for Fold Improvement over BCY9173, EC50 (nM) / Fold Improvement over Emax: co-culture with PC3; for Fold Improvement over Emax: versus BCY9173. The data set is classed as cell-based. The arrangement: host or cells: Jurkat reporter cells. On the procedure:
Culture medium, referred to as R1 media, is prepared by adding 1% FBS to RPMI-1640 (component of Promega kit CS196005). Serial dilutions of test articles in R1 are prepared in a sterile 96 well-plate. Add 25 μL per well of test articles or R1 (as a background control) to designated wells in a white cell culture plate. Tumor cells* are harvested and resuspended at a concentration of 400,000 cells/mL in R1 media. Twenty five (25) μL/well of tumor cells are added to the white cell culture plate. Jurkat cells (Promega kit CS196005, 0.5 mL) are thawed in the water bath and then added to 5 ml pre-warmed R1 media. Twenty five (25) μL/well of Jurkat cells are then added to the white cell culture plate. Incubate the cells and test articles for 6 h at 37° C., 5% CO2. At the end of 6 h, add 75 μL/well Bio-Glo™ reagent (Promega) and incubate for 10 min before reading luminescence in a plate reader (Clariostar, BMG). The fold change relative to cells alone (Jurkat cells+Cell line used in co-culture) is calculated and plotted in GraphPad Prism as log(agonist) vs response to determine EC50 (nM) and Fold Induction over background (Max).
The tumor cell types used in co-culture for EphA2 are A549, PC3 and HT29. The tumor cell type used in co-culture for PD-L1 is RKO.
(A reporter such as luciferase makes a cellular process visible.)

Starred links: 1 amine or outer side, 2 acyl side, 3 side chain; linkers in the order of their positions; H or OH if unused. Positions of bridges follow the written chain, without caps; N, C: chain ends. Non-standard residues stand in square brackets, D forms with d. Primed or numbered codes have the meaning given here. Chains are numbered I, II in the order given. No end group written: not given here. *: point of attachment. X1 = O=C(CCOCCOCCOCCN(CCOCCOCCOCCn1cc(CCC(=O)[*:2])nn1)CCOCCOCCOCCn1cc(CCC(=O)[*:3])nn1)[*:1]; PYA″ = 4-pentynoic acid, acylating the D-Lys side chain, alkyne clicked to the linker azide; X2 = O=C(CCSCCC(=O)[*:1])N1CN(C(=O)CC[*:2])CN(C(=O)CC[*:3])C1; TATA = O=C(CC[*:1])N1CN(C(=O)CC[*:2])CN(C(=O)CC[*:3])C1; Dip = N[C@H](C(=O)O)C(c1ccccc1)c1ccccc1; γGlu = O=C(O)[C@H](CCC(=O)[*:2])N[*:1]; Palmitoyl = CCCCCCCCCCCCCCCC(=O)*; Hyp = O=C(O)[C@@H]1C[C@@H](O)CN1; hArg = N=C(N)NCCCC[C@H](N)C(=O)O; tBuAla = CC(C)(C)C[C@H](N)C(=O)O; Aad = N[C@@H](CCCC(=O)O)C(=O)O; Cysteamide = C(CS[*:3])N[*:1]; Cba = N[C@@H](CC1CCC1)C(=O)O; dK(PYA) = not defined here; dNle = CCCC[C@@H](N)C(=O)O; NMeA = CN[C@@H](C)C(=O)O; Nle = CCCC[C@H](N)C(=O)O; Pent4ynoyl = C#CCCC(=O)*; Mpa = O=C(O)CCS

Chain of CD137 (Q07011 24-255): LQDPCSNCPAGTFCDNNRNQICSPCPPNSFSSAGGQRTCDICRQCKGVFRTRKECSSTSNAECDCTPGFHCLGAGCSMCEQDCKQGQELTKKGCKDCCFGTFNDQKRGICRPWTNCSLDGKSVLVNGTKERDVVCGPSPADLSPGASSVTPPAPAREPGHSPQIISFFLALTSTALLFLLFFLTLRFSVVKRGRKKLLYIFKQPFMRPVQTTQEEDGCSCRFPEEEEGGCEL

What is called EC50 is the concentration giving half of the maximal effect. The low end stands for a more potent agent, the high end for a less potent agent. As for “I: A[hArg]DC[Hyp]LVNPLCLEP[dD]WTC-NH2 / II: Ac-C[tBuAla]PE[dK]PYCFADPY[Nle]CA-NH2 / III: Ac-C[tBuAla]PE[dK]PYCFADPY[Nle]CA-NH2 (linker I:4-I:11-I:18, II:1-II:8-II:15, III:1-III:8-III:15 via TATA; linker I:N-II:5-III:5 via X1) [BCY13044]”, the fold induction stood at 49.5 and the EC50 turned out to be 0.21 nM.
On to “I: ADC[Hyp]LVNPLCLEP[dD]WTC-NH2 / II: Ac-C[tBuAla]PE[dK]PYCFADPY[Nle]CA-NH2 / III: Ac-C[tBuAla]PE[dK]PYCFADPY[Nle]CA-NH2 (linker I:3-I:10-I:17, II:1-II:8-II:15, III:1-III:8-III:15 via TATA; linker I:N-II:5-III:5 via X1) [BCY13282]”, for which the fold induction was 40.
As for “I: A[hArg]DC[Hyp]LVNPLC[Aad]HP[dD]W[hArg]C-NH2 / II: Ac-C[tBuAla]PE[dK]PYCFADPY[Nle]CA-NH2 / III: Ac-C[tBuAla]PE[dK]PYCFADPY[Nle]CA-NH2 (linker I:4-I:11-I:18, II:1-II:8-II:15, III:1-III:8-III:15 via TATA; linker I:N-II:5-III:5 via X1) [BCY13285]”, the “Emax (fold induction over background)” value is 36.53 and the response was half-maximal at 0.26 nM (EC50).
Turning to “I: A[hArg]DC[Hyp]LVNPLCLHP[dD]W[hArg]C-NH2 / II: [Mpa][tBuAla]EE[dK]PYCFADPY[Nle]C-NH2 / III: [tBuAla]EE[dK]PYCFADPY[Nle]C-NH2 (linker I:4-I:11-I:18, II:1-II:8-II:15 via TATA; linker I:N-II:5-III:4 via X1; linker III:N-III:7-III:14 via X2) [BCY13139]”, the “Emax (fold induction over background)” value worked out at 43.75 and the EC50 worked out at 0.16 nM.
Regarding “BCY14335: EphA2:CD137 1:2; BCY14327 (Lys 8) + 2x BCY8928; linker N-(acid-PEG3)-N-bis(PEG3-azide) (peptide 1 {Palmitoyl‑Glu‑LysN3-Pent4ynoyl}-A[hArg]DC[Hyp]LVNPLCLKP[dD]W[hArg]C; peptide 2 Ac-C[tBuAla]PE[dK](Pent4ynoyl)PYCFADPY[Nle]CA; linker I:4-I:11-I:18, II:1-II:8-II:15 via TATA (inferred); not fully specified (some residues); also: 1:2 complex: linker bis(PEG3-azide) clicked to dLys(PYA)4 of two BCY8928 copies, one copy shown)”, the “Fold Improvement over BCY9173, EC50 (nM)” value was 7.14 fold and the “Fold Improvement over Emax” value is given as 0.94 fold.
Take “I: A[hArg]DC[Hyp]LVNPLCLEP[dD]WTC-NH2 / II: [Mpa][tBuAla]PE[dK]PYCFADPY[Nle]C-NH2 / III: [tBuAla]PE[dK]PYCFADPY[Nle]C-NH2 (linker I:4-I:11-I:18, II:1-II:8-II:15 via TATA; linker I:N-II:5-III:4 via X1; linker III:N-III:7-III:14 via X2) [BCY13138]”: the fold induction came out at 32.6 and the 50% effective concentration (EC50) was 0.17 nM.
For “I: A[hArg]DC[Hyp]LVNPLCL[Nle]P[dD]W[hArg]C-NH2 / II: Ac-C[tBuAla]PE[dK]PYCFADPY[Nle]CA-NH2 / III: Ac-C[tBuAla]PE[dK]PYCFADPY[Nle]CA-NH2 (linker I:4-I:11-I:18, II:1-II:8-II:15, III:1-III:8-III:15 via TATA; linker I:N-II:5-III:5 via X1) [BCY13289]”, the fold induction worked out at 45.8 and it took 0.08 nM to reach a half-maximal effect (EC50).
The like results for “I: A[hArg]DC[Hyp][Aad]VNPLCLHP[dD]W[hArg]C-NH2 / II: Ac-C[tBuAla]PE[dK]PYCFADPY[Nle]CA-NH2 / III: Ac-C[tBuAla]PE[dK]PYCFADPY[Nle]CA-NH2 (linker I:4-I:11-I:18, II:1-II:8-II:15, III:1-III:8-III:15 via TATA; linker I:N-II:5-III:5 via X1) [BCY13284]” were, in that order, 34.7 and 0.25 nM.
With “I: [NMeA][hArg]DC[Hyp]LVNPLCLEP[dD]WTC-NH2 / II: Ac-C[tBuAla]PE[dK]PYCFADPY[Nle]CA-NH2 / III: Ac-C[tBuAla]PE[dK]PYCFADPY[Nle]CA-NH2 (linker I:4-I:11-I:18, II:1-II:8-II:15, III:1-III:8-III:15 via TATA; linker I:N-II:5-III:5 via X1) [BCY13276]”, the fold induction is 50.5 and the 50% effective concentration (EC50) worked out at 0.1 nM.
Regarding “BCY14052: EphA2:CD137 1:2; BCY13920 + 2x BCY8928; linker N-(acid-PEG3)-N-bis(PEG3-azide) (peptide 1 A[hArg]DC[Hyp]LVNPLCLFP[dD]W[hArg]C; peptide 2 Ac-C[tBuAla]PE[dK](PYA″)PYCFADPY[Nle]CA; linker I:4-I:11-I:18 via TATA; linker II:1-II:8-II:15 via TATA (inferred); not fully specified (N-terminus, bridges); also: 2x chain 2 (2x BCY8928) on linker)”, the “Fold Improvement over BCY9173, EC50 (nM)” value is 4.16 fold and the “Fold Improvement over Emax” value came out at 1.89 fold.
With “I: A[hArg]DC[Hyp]LVNPLCL[Dip]P[dD]W[hArg]C-NH2 / II: Ac-C[tBuAla]PE[dK]PYCFADPY[Nle]CA-NH2 / III: Ac-C[tBuAla]PE[dK]PYCFADPY[Nle]CA-NH2 (linker I:4-I:11-I:18, II:1-II:8-II:15, III:1-III:8-III:15 via TATA; linker I:N-II:5-III:5 via X1) [BCY13054]”, the “Emax (fold induction over background)” value came out at 36.53 and a half-maximal effect (EC50) was put at 0.07 nM.
Turning to “I: A[hArg]DC[Hyp]LVNPLCLHP[dNle]W[hArg]C-NH2 / II: Ac-C[tBuAla]PE[dK]PYCFADPY[Nle]CA-NH2 / III: Ac-C[tBuAla]PE[dK]PYCFADPY[Nle]CA-NH2 (linker I:4-I:11-I:18, II:1-II:8-II:15, III:1-III:8-III:15 via TATA; linker I:N-II:5-III:5 via X1) [BCY13288]”, the fold induction amounted to 43.3 and the concentration giving a half-maximal response (EC50) stood at 0.09 nM.
Take “I: [dA][hArg]DC[Hyp][Cba]VNPLCLEP[dA]WTC[dA]-NH2 / II: Ac-C[tBuAla]PE[dK]PYCFADPY[Nle]CA-NH2 / III: Ac-C[tBuAla]PE[dK]PYCFADPY[Nle]CA-NH2 (linker I:4-I:11-I:18, II:1-II:8-II:15, III:1-III:8-III:15 via TATA; linker I:N-II:5-III:5 via X1) [BCY13277]”: the fold induction was found to be 51.1 and the EC50 stood at 0.08 nM.
As for “BCY12729: EphA2:CD137 1:2; BCY9594 + 2x BCY12352; linker N-(acid-PEG3)-N-bis(PEG3-azide) (peptide 1 A[hArg]DC[Hyp]LVNPLCLHP[dD]W[hArg]C; peptide 2 Ac-C[tBuAla]PE[dK(PYA)]PYCFADPY[Nle][Cysteamide]; linker I:4-I:11-I:18 via TATA (inferred); linker II:1-II:8-II:15 via TATA; linker II:N-II:5 via N‑(acid-PEG3)‑N‑bis(PEG3-azide); not fully specified (N-terminus); reading uncertain; also: chain 2 twice (1:2 complex))”, the “Fold Improvement over BCY9173, EC50 (nM)” value worked out at 0.5 fold and the “Fold Improvement over Emax” value was 1.6 fold.
The like results for “BCY12732: EphA2:CD137 1:2; BCY9594 + 2x BCY12360; linker N-(acid-PEG3)-N-bis(PEG3-azide) (peptide 1 A[hArg]DC[Hyp]LVNPLCLHP[dD]W[hArg]C; peptide 2 {Palmitoyl-γGlu-γGlu}-C[tBuAla]PE[dK(PYA)]PYCFADPY[Nle]C; linker I:4-I:11-I:18 via TATA (inferred); linker II:1-II:8-II:15 via TATA; not fully specified (N-terminus); reading uncertain; also: chain 2 twice (1:2 complex), linker at chain B 5 to a chain's N-terminus via N-(acid-PEG3)-N-bis(PEG3-azide))” were, in that order, 0.5 fold and 0.4 fold.
With “I: [dA][hArg]DC[Hyp][Cba]VNPLCLEP[dD]WTC[dA]-NH2 / II: Ac-C[tBuAla]PE[dK]PYCFADPY[Nle]CA-NH2 / III: Ac-C[tBuAla]PE[dK]PYCFADPY[Nle]CA-NH2 (linker I:4-I:11-I:18, II:1-II:8-II:15, III:1-III:8-III:15 via TATA; linker I:N-II:5-III:5 via X1) [BCY13052]”, the fold induction was 32.9 and the midpoint of the response, the EC50, lay at 0.21 nM.
As to “I: Ac-A[hArg]DC[Hyp]LVNPLCLHP[dD]W[hArg]CK-NH2 / II: Ac-C[tBuAla]PE[dK]PYCFADPY[Nle]CA-NH2 / III: Ac-C[tBuAla]PE[dK]PYCFADPY[Nle]CA-NH2 (linker I:4-I:11-I:18, II:1-II:8-II:15, III:1-III:8-III:15 via TATA; linker I:19-II:5-III:5 via X1) [BCY12973]”, the fold induction was found to be 48.6 and it took 0.16 nM to reach a half-maximal effect (EC50).
